Test system: c-Myc
Assay: c-Myc immunofluorescence assay
Format: cell-based, human
Details: A549 cells, 24 hours treatment, anti-c-Myc immunofluorescence
Summary of the method: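 High-content imaging (20×) of PFA-fixed A549 cells immunostained for c-Myc with DAPI nuclei, after 24 h compound treatment at increasing concentrations. Per-cell c-Myc signal in identified cell regions was plotted against dose and fitted by logistic regression to give EC50.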

Compound: CNC(=O)c1ccc(-c2cn3c(n2)sc2cc(C(=O)NCCC(=O)N4CCCCC4)ccc23)cc1 [compound 191, 2-(4-(methylcarbamoyl)phenyl)-N-(3-oxo-3-(piperidin-1-yl)propyl)benzo[d]imidazo [2,1-b]thiazole-7-carboxamide]
- Myc Efficacy (−LogEC50): + (+ >3 and <5)

Compound: CNC(=O)c1ccc(-c2cn3c(n2)sc2cc(C(=O)N[C@@H](CO)CC(C)C)ccc23)cc1 [compound 192, (R)-N-(1-hydroxy-4-methylpentan-2-yl)-2-(4-(methylcarbamoyl)phenyl) benzo[d]imidazo[2,1-b]thiazole-7-carboxamide]
- Myc Efficacy (−LogEC50): − (− ≤3)

Compound: CCN(CCCN(C)C(=O)c1ccc2c(c1)sc1nc(-c3cccc(C)c3)cn12)CC(F)(F)F [compound 193, N-(3-(ethyl(2,2,2-trifluoroethyl)amino)propyl) N-methyl-2-(m-tolyl)benzo[d]imidazo[2,1-b]thiazole-7-carboxamide]
- Myc Efficacy (−LogEC50): + (+ >3 and <5)

Compound: CCN(CC)CCCNC(=O)c1ccc2c(c1)sc1nc(-c3cc(C)ccn3)cn12 [compound 194, N-(3-(diethylamino)propyl)-2-(4-methylpyridin-2-yl)benzo[d]imidazo[2,1-b]thiazole-7-carboxamide]
- Myc Efficacy (−LogEC50): + (+ >3 and <5)

Compound: CNC(=O)c1ccc(-c2cn3c(n2)sc2cc(C(=O)NCC4(O)COC4)ccc23)cc1 [compound 195, N-((3-hydroxyoxetan-3-yl)methyl)-2-(4-(methylcarbamoyl)phenyl) benzo[d]imidazo[2,1-b]thiazole-7-carboxamide]
- Myc Efficacy (−LogEC50): − (− ≤3)

Compound: CNC(=O)c1ccc(-c2cn3c(n2)sc2cc(C(=O)NC[C@H]4CCNC[C@@H]4O)ccc23)cc1 [compound 196, N-(((3R,4R)-3-hydroxypiperidin-4-yl)methyl)-2-(4-(methylcarbamoyl)phenyl) benzo[d]imidazo[2,1-b]thiazole-7-carboxamide]
- Myc Efficacy (−LogEC50): + (+ >3 and <5)

Compound: CNC(=O)c1ccc(-c2cn3c(n2)sc2cc(C(=O)NC(C)C(=O)N(C)C)ccc23)cc1 (stereo not shown) [compound 197, N-(1-(dimethylamino)-1-oxopropan-2-yl)-2-(4-(methylcarbamoyl)phenyl) benzo[d]imidazo[2,1-b]thiazole-7-carboxamide]
- Myc Efficacy (−LogEC50): + (+ >3 and <5)

Compound: CNC(=O)c1ccc(-c2cn3c(n2)sc2cc(C(=O)NC4CN(C)C4)ccc23)cc1 [compound 198, N-(1-methylazetidin-3-yl)-2-(4-(methylcarbamoyl)phenyl) benzo[d]imidazo[2,1-b]thiazole-7-carboxamide]
- Myc Efficacy (−LogEC50): + (+ >3 and <5)

Compound: CNC(=O)c1ccc(-c2cn3c(n2)sc2cc(C(=O)NC4(CN)CCC4)ccc23)cc1 [compound 199, N-(1-(aminomethyl)cyclobutyl)-2-(4-(methylcarbamoyl)phenyl) benzo[d]imidazo[2,1-b]thiazole-7-carboxamide]
- Myc Efficacy (−LogEC50): + (+ >3 and <5)

Compound: CNC(=O)c1ccc(-c2cn3c(n2)sc2cc(C(=O)NCC[C@H](C)N)ccc23)cc1 [compound 200, (S)-N-(3-aminobutyl)-2-(4-(methylcarbamoyl)phenyl) benzo[d]imidazo[2,1-b]thiazole-7-carboxamide]
- Myc Efficacy (−LogEC50): + (+ >3 and <5)

Compound: CNC(=O)c1ccc(-c2cn3c(n2)sc2cc(C(=O)NCCOC)ccc23)cc1 [compound 201, N-(2-methoxyethyl)-2-(4-(methylcarbamoyl)phenyl) benzo[d]imidazo[2,1-b]thiazole-7-carboxamide]
- Myc Efficacy (−LogEC50): + (+ >3 and <5)

Compound: CNC(=O)c1ccc(-c2cn3c(n2)sc2cc(C(=O)NCCc4cnn(C)c4)ccc23)cc1 [compound 202, N-(2-(1-methyl-1H-pyrazol-4-yl)ethyl)-2-(4-(methylcarbamoyl)phenyl) benzo[d]imidazo[2,1-b]thiazole-7-carboxamide]
- Myc Efficacy (−LogEC50): − (− ≤3)

Compound: CNC(=O)c1ccc(-c2cn3c(n2)sc2cc(C(=O)NCC(C)OC)ccc23)cc1 (stereo not shown) [compound 203, N-(2-methoxypropyl)-2-(4-(methylcarbamoyl)phenyl) benzo[d]imidazo[2,1-b]thiazole-7-carboxamide]
- Myc Efficacy (−LogEC50): + (+ >3 and <5)

Compound: CNC(=O)c1ccc(-c2cn3c(n2)sc2cc(C(=O)NCC4CCCO4)ccc23)cc1 (stereo not shown) [compound 204, 2-(4-(methylcarbamoyl)phenyl)-N-((tetrahydrofuran-2-yl)methyl)benzo[d]imidazo [2,1-b]thiazole-7-carboxamide]
- Myc Efficacy (−LogEC50): + (+ >3 and <5)

Compound: CNC(=O)c1ccc(-c2cn3c(n2)sc2cc(C(=O)NC4CCCCC4N)ccc23)cc1 (stereo not shown) [compound 205, N-(2-aminocyclohexyl)-2-(4-(methylcarbamoyl)phenyl) benzo[d]imidazo[2,1-b]thiazole-7-carboxamide]
- Myc Efficacy (−LogEC50): + (+ >3 and <5)

Compound: CNC(=O)c1ccc(-c2cn3c(n2)sc2cc(C(=O)NC4(C(F)(F)F)COC4)ccc23)cc1 [compound 206, 2-(4-(methylcarbamoyl)phenyl)-N-(3-(trifluoromethyl)oxetan-3-yl)benzo[d]imidazo[2,1-b]thiazole-7-carboxamide]
- Myc Efficacy (−LogEC50): − (− ≤3)

Compound: CNC(=O)c1ccc(-c2cn3c(n2)sc2cc(C(=O)N[C@H]4CCCN(C)C4)ccc23)cc1 [compound 207, (S)-2-(4-(methylcarbamoyl)phenyl)-N-(1-methylpiperidin-3-yl)benzo[d]imidazo[2,1-b]thiazole-7-carboxamide]
- Myc Efficacy (−LogEC50): ++ (++ ≥5 and <6)

Compound: CCC(CNC(=O)c1ccc2c(c1)sc1nc(-c3ccc(C(=O)NC)cc3)cn12)N(C)C (stereo not shown) [compound 208, N-(2-(dimethylamino)butyl)-2-(4-(methylcarbamoyl)phenyl) benzo[d]imidazo[2,1-b]thiazole-7-carboxamide]
- Myc Efficacy (−LogEC50): + (+ >3 and <5)

Compound: CNC(=O)c1ccc(-c2cn3c(n2)sc2cc(C(=O)N[C@H]4CCN(C5CCOCC5)C4)ccc23)cc1 [compound 209, (S)-2-(4-(methylcarbamoyl)phenyl)-N-(1-(tetrahydro-2H-pyran-4-yl)pyrrolidin-3-yl)benzo[d]imidazo[2,1-b]thiazole-7-carboxamide]
- Myc Efficacy (−LogEC50): + (+ >3 and <5)

Compound: CNC(=O)c1ccc(-c2cn3c(n2)sc2cc(C(=O)NCC4(C)CCOC4)ccc23)cc1 (stereo not shown) [compound 210, 2-(4-(methylcarbamoyl)phenyl)-N-((3-methyltetrahydrofuran-3-yl)methyl)benzo[d]imidazo [2,1-b]thiazole-7-carboxamide]
- Myc Efficacy (−LogEC50): + (+ >3 and <5)

Compound: CNC(=O)c1ccc(-c2cn3c(n2)sc2cc(C(=O)NCCOC(C)C)ccc23)cc1 [compound 211, N-(2-isopropalyethyl)-2-(4-(methylcarbamoyl)phenyl) benzo[d]imidazo[2,1-b]thiazole-7-carboxamide]
- Myc Efficacy (−LogEC50): − (− ≤3)

Compound: CNC(=O)c1ccc(-c2cn3c(n2)sc2cc(C(=O)NC[C@H]4CCCN(C)C4)ccc23)cc1 [compound 212, (R)-2-(4-(methylcarbamoyl)phenyl)-N-((1-methylpiperidin-3-yl)methyl)benzo[d]imidazo [2,1-b]thiazole-7-carboxamide]
- Myc Efficacy (−LogEC50): + (+ >3 and <5)

Compound: CNC(=O)c1ccc(-c2cn3c(n2)sc2cc(C(=O)N[C@@H](CO)c4ccccc4)ccc23)cc1 [compound 213, (R)-N-(2-hydroxy-1-phenylethyl)-2-(4-(methylcarbamoyl)phenyl) benzo[d]imidazo[2,1-b]thiazole-7-carboxamide]
- Myc Efficacy (−LogEC50): + (+ >3 and <5)

Compound: CCN1CCC[C@@H]1CNC(=O)c1ccc2c(c1)sc1nc(-c3ccc(C(=O)NC)cc3)cn12 [compound 214, (R)-N-((1-ethylpyrrolidin-2-yl)methyl)-2-(4-(methylcarbamoyl)phenyl) benzo[d]imidazo[2,1-b]thiazole-7-carboxamide]
- Myc Efficacy (−LogEC50): + (+ >3 and <5)

Compound: CCN1CCC(CNC(=O)c2ccc3c(c2)sc2nc(-c4ccc(C(=O)NC)cc4)cn23)CC1 [compound 215, N-((1-ethylpiperidin-4-yl)methyl)-2-(4-(methylcarbamoyl)phenyl) benzo[d]imidazo[2,1-b]thiazole-7-carboxamide]
- Myc Efficacy (−LogEC50): − (− ≤3)

Compound: CNC(=O)c1ccc(-c2cn3c(n2)sc2cc(C(=O)NCC4(N(C)C)CCCCC4)ccc23)cc1 [compound 216, N-((1-(dimethylamino)cyclohexyl)methyl)-2-(4-(methylcarbamoyl)phenyl) benzo[d]imidazo[2,1-b]thiazole-7-carboxamide]
- Myc Efficacy (−LogEC50): + (+ >3 and <5)

Compound: CNC(=O)c1ccc(-c2cn3c(n2)sc2cc(C(=O)NCCN(C(C)C)C(C)C)ccc23)cc1 [compound 217, N-(2-(diisopropylamino)ethyl)-2-(4-(methylcarbamoyl)phenyl) benzo[d]imidazo[2,1-b]thiazole-7-carboxamide]
- Myc Efficacy (−LogEC50): + (+ >3 and <5)

Compound: CCN(CC)CCCNC(=O)c1ccc2c(c1)sc1nc(-c3ccc(C(NC)C(F)(F)F)cc3)cn12 (stereo not shown) [compound 218, N-(3-(diethylamino)propyl)-2-(4-(2,2,2-trifluoro-1-(methylamino)ethyl)phenyl) benzo[d]imidazo[2,1-b]thiazole-7-carboxamide]
- Myc Efficacy (−LogEC50): ++ (++ ≥5 and <6)

Compound: CNC(=O)c1ccc(-c2cn3c(n2)sc2cc(C(=O)N[C@H]4COC[C@@H]4O)ccc23)cc1 [compound 219, N-((3S,4R)-4-hydroxytetrahydrofuran-3-yl)-2-(4-(methylcarbamoyl)phenyl) benzo[d]imidazo[2,1-b]thiazole-7-carboxamide]
- Myc Efficacy (−LogEC50): + (+ >3 and <5)

Compound: CNC(=O)c1ccc(-c2cn3c(n2)sc2cc(C(=O)N[C@@H](C)CN)ccc23)cc1 [compound 220, (S)-N-(1-aminopropan-2-yl)-2-(4-(methylcarbamoyl)phenyl) benzo[d]imidazo[2,1-b]thiazole-7-carboxamide]
- Myc Efficacy (−LogEC50): + (+ >3 and <5)

Compound: CNC(=O)c1ccc(-c2cn3c(n2)sc2cc(C(=O)NC(C)Cn4cccn4)ccc23)cc1 (stereo not shown) [compound 221, N-(1-(1H-pyrazol-1-yl)propan-2-yl)-2-(4-(methylcarbamoyl)phenyl) benzo[d]imidazo[2,1-b]thiazole-7-carboxamide]
- Myc Efficacy (−LogEC50): + (+ >3 and <5)
